US7902254B1, “Method for treating conditions mediated by PPAR using macelignan” (Newtree Co., Ltd., priority 2005, dated 2011)

Experiments:
[1] = tested on: target genes of PPARα (CD36, CPT-1, PDK4, ACO); experiment: Expression of target genes of PPARα in SK-HEP-1 liver cells (RT-PCR); format: cell-based; conditions: SK-HEP-1 cells, 1, 5, 10 and 25 μM, 24 hours, vs control
Method: SK-HEP-1 liver cells ([…]) cultured in a DMEM medium containing 10% FBS were pipetted into a multi-well plate in a cell count of 1×10^6 cells per well, and then further cultured for 5 hours. Different concentrations (1, 5, 10 and 25 μM) of macelignan were added to the medium of the cultured cells, and then the cells were left for 24 hours. The cells were collected and the total RNA was isolated by using TRIZOL (Invitrogen, USA). The total RNA isolated as described above was determined and cDNA was synthesized by using reverse transcriptase at 42° C. for 20 minutes with same amounts of RNA. The cDNA was subjected to RT-PCR by repeating 30 cycles of 95° C./1 minute, 56° C./30 seconds and 72° C./2 minutes with the following primers and Taq polymerase: primers for CD36 amplification (SEQ ID NO: 5(CGGCGATGAGAAAGCAGAA) and SEQ ID NO: 6(CAACCAGGCCCAGGAGC)), primers for CPT-1 amplification (SEQ ID NO: 7([…]) and SEQ ID NO: 8([…])), primers for PDK4 amplification (SEQ ID NO: 9([…]) and SEQ ID NO: 10(ATAAGTTAAGTGGGCCTGG)), and primers for ACO amplification (SEQ ID NO: 11([…]) and SEQ ID NO: 12([…])).

[2] = tested on: 3T3-L1 mouse pre-adipocytes; experiment: Stimulation of adipocyte differentiation; format: cell-based; conditions: 10 μM, 3T3-L1, vs 0.01% DMSO control and 10 μM troglitazone
Method: 3T3-L1 mouse pre-adipocytes cultured in a DMEM medium containing 10% FBS were pipetted into a multi-well plate in a cell count of 1×10^6 cells per well, and then further cultured for 5 hours. To the cultured cells, 10 μM of macelignan was added and then left for 24 hours. Adipocyte differentiation was induced by substituting the medium of the cultured cells with MDI (0.5 mM 3-isobutyl-1-methylxanthine, 0.5 uM dexamethasone, 10 ug/ml insulin) medium (Am. J. Physiol. Cell Physiol., 280: C807-C813, 2001). The shape of the cells was observed by an optical microscope two day after the substitution of MDI medium.

[3] = tested on: obesity/diabetes mice (db/db mice); experiment: Effect upon hyperlipidemia and cardiovascular diseases in obesity/diabetes mouse model; format: in vivo; conditions: 14 days
Method: To investigate effects of macelignan upon the treatment of hyperlipidemia and cardiovascular diseases, seven mice of 10 week-aged obesity/diabetes mice (db/db mice) were used per test group. To the test groups, macelignan suspended in 0.25% carboxymethyl cellulose was orally administered in an administration dose of 5 mg/kg (body weight), 10 mg/kg (body weight) and 25 mg/kg (body weight), once per day at a predetermined time, for 14 days. As a control, 0.25% carboxymethyl cellulose was orally administered alone to normal mice in the same dose as administered to the test group. As another control, 0.25% carboxymethyl cellulose was orally administered alone to obesity/diabetes mice in the same dose as administered to the test group. As still another control, 10 mg/kg (body weight) of troglitazone was orally administered. Fourteen days after the administration, triglyceride concentration in blood (triglyceride measuring kit, Wako, Japan), free fatty acid concentration in blood (free fatty acid measuring kit, Wako, Japan), total cholesterol content in blood (ASAN T-CHO-Lq Reagents, Asan Pharmaceutical Co. Ltd., Korea), HDL-cholesterol content in blood (ASAN HDL-Cholesterol, Asan Pharmaceutical Co. Ltd., Korea), IL-6 content in blood (IL-6 Quantikine ELISA, R&D systems, USA) and TNF-α content in blood were measured for the test groups and the controls.

[4] = tested on: target genes of PPARα (CD36, ACO, CPT-1); experiment: Expression of target genes of PPARα in liver tissue of obesity/diabetes mouse model; format: in vivo; conditions: 5, 10 and 25 mg/kg oral, 14 days, db/db mice, p<0.05 vs control
Method: Liver tissue was removed from the test groups and the controls treated by oral administration in Examples 5˜8. The liver tissue was homogenized in liquid nitrogen and the total RNA was isolated from the tissues by using TRIZOL (Invitrogen, USA). The total RNA isolated as described above was determined and cDNA was synthesized by using reverse transcriptase at 42° C. for 20 minutes with same amount of RNA. The cDNA was subjected to RT-PCR by repeating 30 cycles of 95° C./1 minute, 56° C./30 seconds and 72° C./2 minutes with the following primers and Taq polymerase: primers for CD36 amplification (SEQ ID NO: 5 and SEQ ID NO: 6), primers for ACO amplification (SEQ ID NO: 11 and SEQ ID NO: 12), and primers for CPT-1 amplification (SEQ ID NO: 7 and SEQ ID NO: 8). Expression of the genes was determined by real-time PCR.

[5] = tested on: obesity/diabetes mice (db/db mice); experiment: Effect upon fatty liver in obesity/diabetes mouse model; format: in vivo; conditions: 25 mg/kg oral, 14 days
Method: To investigate effects of macelignan upon the prevention and treatment of fatty liver, seven mice of 10 week-aged obesity/diabetes mice (db/db mice) were used per test group. To the test groups, macelignan suspended in 0.25% carboxymethyl cellulose was orally administered in an administration dose of 5 mg/kg (body weight), 10 mg/kg (body weight) and 25 mg/kg (body weight), once per day at a predetermined time, for 14 days in all. As a control, 0.25% carboxymethyl cellulose was orally administered alone to normal mice in the same dose as administered to the test group. As another control, 0.25% carboxymethyl cellulose was orally administered alone to obesity/diabetes mice in the same dose as administered to the test group. As still another control, 10 mg/kg (body weight) of troglitazone was orally administered. Fourteen days after the oral administration, the liver tissue was isolated and crushed to extract the total lipid and fat contents, and then the triglyceride content accumulated in the liver tissue was measured.

In the case of `COc1cc(C[C@H](C)[C@H](C)Cc2ccc3c(c2)OCO3)ccc1O` (single isomer, unassigned) [macelignan], the “mRNA expression of CD36, CPT-1, PDK-4 and ACO” value [1] is reported as “significantly increased”, the adipocyte differentiation [2] is reported as “adipocyte differentiation was stimulated” and the “Free fatty acid in blood” value ([3]; 5 mg/kg oral) is reported as 1.26 ± 0.19 mEq/l. For the same compound, the HDL-cholesterol in blood ([3]; 5 mg/kg oral) was 43.5 ± 6.73 mg/dL, the IL-6 in blood ([3]; 5 mg/kg oral) was 21.42 ± 11.42 pg/mL and the TNF-α in blood ([3]; 5 mg/kg oral) was 36.92 ± 16.27 pg/mL. For the same compound, the Total cholesterol in blood ([3]; 5 mg/kg oral) was 119 ± 13.8 mg/dL, the Triglyceride in blood ([3]; 5 mg/kg oral) was 98.71 ± 36.62 mg/dL and the “Free fatty acid in blood” value ([3]; 10 mg/kg oral) was 1.16 ± 0.31 mEq/l. For the same compound, the HDL-cholesterol in blood ([3]; 10 mg/kg oral) was 42.2 ± 7.29 mg/dL, the IL-6 in blood ([3]; 10 mg/kg oral) was 12.04 ± 5.47 pg/mL and the TNF-α in blood ([3]; 10 mg/kg oral) was 16.41 ± 9.60 pg/mL. For the same compound, the Total cholesterol in blood ([3]; 10 mg/kg oral) was 110 ± 15.2 mg/dL, the Triglyceride in blood ([3]; 10 mg/kg oral) was 91.71 ± 44.04 mg/dL and the “Free fatty acid in blood” value ([3]; 25 mg/kg oral) was 1.14 ± 0.15 mEq/l. The HDL-cholesterol in blood ([3]; 25 mg/kg oral) was 46.6 ± 3.89 mg/dL, the IL-6 in blood ([3]; 25 mg/kg oral) was 4.86 ± 2.46 pg/mL and the TNF-α in blood ([3]; 25 mg/kg oral) was 27.54 ± 9.77 pg/mL. For the same compound, the Total cholesterol in blood ([3]; 25 mg/kg oral) was 110 ± 23.7 mg/dL, the Triglyceride in blood ([3]; 25 mg/kg oral) was 84.00 ± 31.24 mg/dL and the “mRNA expression of CD36, ACO and CPT-1 in liver tissue” value [4] was “significantly increased”. The “triglyceride content in the liver tissue” value [5] was 6.30 ± 11.59 mg/g.
